Measurements published in patent US20040192771A1, “Ether compounds and compositions for cholesterol management and related uses” (priority 2001, published 2004).
Read-outs that look alike come from different tables or passages of the source.

Key:
obese female Zucker rats = assay: Oral daily treatment of obese female Zucker rats for fourteen days; serum lipids and glycemic control indicators; type: in vivo; settings: Rattus norvegicus, percent change from study prebleed; for change in vivo at 100 mg/kg/day: 100 mg/kg/day oral; for change in vivo at 30 mg/kg/day: 30 mg/kg/day oral
Procedure: In a number of different experiments, illustrative compounds of the invention are administered daily at a dose of up to 100 mg/kg to chow fed obese female Zucker rats for fourteen days in the morning by oral gavage in 1.5% carboxymethylcellulose/0.2% Tween 20 or 20% ethanol/80% polyethylene glycol (dosing vehicles). Animals are weighed daily. Animals are allowed free access to rodent chow and water throughout the study except on days of blood sampling where food is restricted for six hours prior to blood sampling. Blood glucose is determined after the 6 hour fast in the afternoon without anesthesia from a tail vein. Serum is also prepared from pretreatment blood samples subsequently obtained from the orbital venous plexus (with O2/CO2 anesthesia) and following the fourteenth dose at sacrifice from the heart following O2/CO2 anesthesia. Serums are assayed for lipoprotein cholesterol profiles, triglycerides, total cholesterol, Non HDL cholesterol, HDL cholesterol, the ratio of HDL cholesterol to that of Non HDL cholesterol, insulin, non esterified fatty acids, and beta hydroxy butyric acid. The percent body weight gain and the ratio of liver to body weight is also determined. These are shown as absolute values or as a percent change of the pretreatment values in Table C. [drawing 479] [drawing 480]

primary rat hepatocytes = assay: Inhibition of lipid synthesis ([1-14C]-acetate incorporation) in primary cultures of rat hepatocytes; type: cell-based; settings: Hepatocyte, total lipid synthesis, 4 hours incubation
Procedure: Compounds were tested for inhibition of lipid synthesis in primary cultures of rat hepatocytes. Male Sprague-Dawley rats were anesthetized with intraperitoneal injection of sodium pentobarbital (80 mg/kg). Rat hepatocytes were isolated essentially as described by the method of Seglen (Seglen, P. O. Hepatocyte suspensions and cultures as tools in experimental carcinogenesis. J. Toxicol. Environ. Health 1979, 5, 551-560). Hepatocytes were suspended in Dulbecco's Modified Eagles Medium containing 25 mM D-glucose, 14 mM HEPES, 5 mM L-glutamine, 5 mM leucine, 5 mM alanine, 10 mM lactate, 1 mM pyruvate, 0.2% bovine serum albumin, 17.4 mM non-essential amino acids, 20% fetal bovine serum, 100 nM insulin and 20 μg/mL gentamycin) and plated at a density of 1.5×10^5 cells/cm^2 on collagen-coated 96-well plates. Four hours after plating, media was replaced with the same media without serum. Cells were grown overnight to allow formation of monolayer cultures. Lipid synthesis incubation conditions were initially assessed to ensure the linearity of [1-^14C]-acetate incorporation into hepatocyte lipids for up to 4 hours. Hepatocyte lipid synthesis inhibitory activity was assessed during incubations in the presence of 0.25 μCi [1-^14C]-acetate/well (final radiospecific activity in assay is 1 Ci/mol) and 0, 1, 3, 10, 30, 100 or 300 μM of compounds for 4 hours. At the end of the 4-hour incubation period, medium was discarded and cells were washed twice with ice-cold phosphate buffered saline and stored frozen prior to analysis. To determine total lipid synthesis, 170 μl of MicroScint-E® and 50 μl water was added to each well to extract and partition the lipid soluble products to the upper organic phase containing the scintillant. Lipid radioactivity was assessed by scintillation spectroscopy in a Packard TopCount NXT.

[1] = 168 h, week 1, read-out: Glucose
[2] = 168 h, week 1, read-out: Insulin
[3] = 168 h, week 1, read-out: Non-HDL-C
[4] = 336 h, week 2, read-out: Glucose
[5] = 336 h, week 2, read-out: Insulin
[6] = 336 h, week 2, read-out: Non-HDL-C

Row | Compound | change in vivo at 100 mg/kg/day (obese female Zucker rats; [1]) [%] | change in vivo at 100 mg/kg/day (obese female Zucker rats; 168 h, week 1, read-out: HDL-C) [%] | change in vivo at 100 mg/kg/day (obese female Zucker rats; [2]) [%] | change in vivo at 100 mg/kg/day (obese female Zucker rats; [3]) [%] | change in vivo at 100 mg/kg/day (obese female Zucker rats; 168 h, week 1, read-out: TC) [%] | change in vivo at 100 mg/kg/day (obese female Zucker rats; 168 h, week 1, read-out: TG) [%] | change in vivo at 100 mg/kg/day (obese female Zucker rats; [4]) [%] | change in vivo at 100 mg/kg/day (obese female Zucker rats; 336 h, week 2, read-out: HDL-C) [%] | change in vivo at 100 mg/kg/day (obese female Zucker rats; [5]) [%] | change in vivo at 100 mg/kg/day (obese female Zucker rats; [6]) [%] | change in vivo at 100 mg/kg/day (obese female Zucker rats; 336 h, week 2, read-out: TC) [%] | change in vivo at 100 mg/kg/day (obese female Zucker rats; 336 h, week 2, read-out: TG) [%] | IC50 (primary rat hepatocytes) [µM] | change in vivo at 30 mg/kg/day (obese female Zucker rats; 168 h, week 1, read-out: HDL-C) [%] | change in vivo at 30 mg/kg/day (obese female Zucker rats; [2]) [%] | change in vivo at 30 mg/kg/day (obese female Zucker rats; 168 h, week 1, read-out: TC) [%] | change in vivo at 30 mg/kg/day (obese female Zucker rats; 168 h, week 1, read-out: TG) [%] | change in vivo at 30 mg/kg/day (obese female Zucker rats; [4]) [%] | change in vivo at 30 mg/kg/day (obese female Zucker rats; 336 h, week 2, read-out: HDL-C) [%] | change in vivo at 30 mg/kg/day (obese female Zucker rats; [5]) [%] | other results
1 | CC(CO)(CCCOCCCC(C)(CO)c1ccccc1)c1ccccc1 (stereo not drawn) [Compound 110, 5-(5-Hydroxy-4-methyl-4-phenylpentyloxy)-2-methyl-2-phenylpentan-1-ol] | 12 | 7 | -2 | -32 | -4 | -27 | 10 | 5 | -6 | -26 | -4 | -18 | 143 | – | – | – | – | – | – | – | –
2 | CC(CO)(CCCCOCCCCC(C)(CO)c1ccccc1)c1ccccc1 (stereo not drawn) [Compound 111, 6-(6-Hydroxy-5-methyl-5-phenylhexyloxy)-2-methyl-2-phenylhexan-1-ol] | – | – | – | – | – | – | – | – | – | – | – | – | 106 | -4 | -37 | -17 | -14 | -18 | -28 | -36 | change in vivo at 30 mg/kg/day (obese female Zucker rats; [3]): -33%; change in vivo at 30 mg/kg/day (obese female Zucker rats; [6]): -1%; change in vivo at 30 mg/kg/day (obese female Zucker rats; 336 h, week 2, read-out: TC): -20%; change in vivo at 30 mg/kg/day (obese female Zucker rats; 336 h, week 2, read-out: TG): -7%
3 | CC(C)(CCCCOCCCCC(C)(C)COC1CCCCO1)COC1CCCCO1 (stereo not drawn) [Compound 122, 2-{6-[5,5-Dimethyl-6-(tetrahydropyran-2-yloxy)-hexyloxy]-2,2-dimethylhexyloxy}-tetrahydropyran] | -7 | 43 | -18 | 46 | 42 | -1 | 9 | 79 | -20 | 92 | 79 | 22 | 20 | – | – | – | – | – | – | – | –
4 | CC(C)(CO)CCCCOCCCC(C)(C)CO [Compound 126, 6-(5-Hydroxy-4,4-dimethylpentyloxy)-2,2-dimethylhexan-1-ol] | 68 | 630 | 240 | -28 | 119 | -63 | 9 | 786 | 145 | -17 | 161 | -58 | 17 | – | – | – | – | – | – | – | –
5 | CC(CO)(CCCCOCCCC(C)(CO)c1ccccc1)c1ccccc1 (stereo not drawn) [Compound 127, 6-(5-Hydroxy-4-methyl-4-phenylpentyloxy)-2-methyl-2-phenylhexan-1-ol] | – | – | – | – | – | – | – | – | – | – | – | – | – | -2 | 3 | 3 | 0 | -3 | -20 | 0 | change in vivo at 30 mg/kg/day (obese female Zucker rats; [1]): 5%; change in vivo at 30 mg/kg/day (obese female Zucker rats; [6]): 45%; change in vivo at 30 mg/kg/day (obese female Zucker rats; 336 h, week 2, read-out: TC): 2%; change in vivo at 30 mg/kg/day (obese female Zucker rats; 336 h, week 2, read-out: TG): 21%
6 | CC(C)(CO)CCCCOCCCCC(C)(C)CO [Compound 128, 6-(6-Hydroxy-5,5-dimethylhexyloxy)-2,2dimethylhexan-1-ol] | – | – | – | – | – | – | – | – | – | – | – | – | 10 | 174 | 48 | 131 | -52 | 44 | 349 | 48 | change in vivo at 30 mg/kg/day (obese female Zucker rats; [1]): 2%; change in vivo at 30 mg/kg/day (obese female Zucker rats; [3]): -14%; change in vivo at 30 mg/kg/day (obese female Zucker rats; [6]): 59%; change in vivo at 30 mg/kg/day (obese female Zucker rats; 336 h, week 2, read-out: TC): 224%; change in vivo at 30 mg/kg/day (obese female Zucker rats; 336 h, week 2, read-out: TG): -39%
7 | CC(C)(CO)CCCCOCCCCC(C)(CO)c1ccccc1 (stereo not drawn) [Compound 129, 6-(6-Hydroxy-5-methyl-5-phenylhexyloxy)-2,2-dimethyl-hexan-1-ol] | 14 | 26 | 2 | -55 | -6 | -61 | 4 | 52 | 6 | -13 | 26 | -45 | 4.7 | – | – | – | – | – | – | – | –
8 | CC(C)(CO)CCCCCOCCCCC(C)(C)CO [Compound 130, 7-(6-Hydroxy-5,5-dimethylhexyloxy)-2,2-dimethylheptan-1-ol] | – | – | – | – | – | – | – | – | – | – | – | – | 8.4 | 71 | 25 | 41 | -66 | 6 | 105 | 13 | change in vivo at 30 mg/kg/day (obese female Zucker rats; [1]): 6%; change in vivo at 30 mg/kg/day (obese female Zucker rats; [3]): -26%; change in vivo at 30 mg/kg/day (obese female Zucker rats; [6]): 17%; change in vivo at 30 mg/kg/day (obese female Zucker rats; 336 h, week 2, read-out: TC): 77%; change in vivo at 30 mg/kg/day (obese female Zucker rats; 336 h, week 2, read-out: TG): -47%
9 | CC(C)(CO)CCCCCOCCCCCC(C)(C)CO [Compound 131, 7-(7-Hydroxy-6,6-dimethylheptyloxy)-2,2-dimethylheptan-1-ol] | -6 | 292 | 40 | -79 | 85 | -91 | -5 | 289 | -1 | -57 | 106 | -88 | 3.8 | – | – | – | – | – | – | – | –
10 | CC(C)(CO)CCCOCCOCCCC(C)(C)CO [Compound 149, 5-[2-(5-Hydroxy-4,4-dimethylpentyloxy)-ethoxy]-2,2-dimethylpentan-1-ol] | – | – | – | – | – | – | – | – | – | – | – | – | – | 37 | -40 | -7 | -37 | -27 | 17 | -26 | change in vivo at 30 mg/kg/day (obese female Zucker rats; [1]): -20%; change in vivo at 30 mg/kg/day (obese female Zucker rats; [3]): -48%; change in vivo at 30 mg/kg/day (obese female Zucker rats; [6]): -27%; change in vivo at 30 mg/kg/day (obese female Zucker rats; 336 h, week 2, read-out: TC): -7%; change in vivo at 30 mg/kg/day (obese female Zucker rats; 336 h, week 2, read-out: TG): -30%
